Reference: article PMC11674187, “Inhibitory Effects of Cenobamate on Multiple Human Cardiac Ion Channels and Possible Arrhythmogenic Consequences” (Biomolecules, 2024)
“And” between values parts separate entries of the source, which are not always exact repeats. Equal values may be shown once.

Key:
hNav1.5 = target: T1, hNav1.5 (Homo sapiens, UniProt Q14524); assay: State-dependent blocking/unblocking kinetics of Nav1.5 (use-dependent block protocol, inactivation time constants); type: cell-based
T1 construct: host or cells: HEK293T
Protocol: Manual whole-cell patch-clamp experiments were performed at room temperature, with equipment as described in previous studies. Pipettes were pulled from Clark borosilicate glass capillaries with inner filament (GC150F-10, Harvard Apparatus, Holliston, MA, USA) and had typical resistances of 2–3 MΩ. Recordings were performed with a WPC-100 resistive feedback amplifier (ESF electronic, Göttingen, Germany) or an Axopatch 200B amplifier (Axon Instruments—Molecular Devices, San Jose, CA, USA) connected to a Digidata 1322A interface driven by the pClamp 8.2 Clampex module (Axon Instruments, part of Molecular Devices, San Jose, CA, USA). For different types of ion channel, we applied specific voltage-clamp protocols as follows: • - For hERG, a standard two-step activation protocol was used: holding at −70 mV, a 100 ms step at −50 mV used as current reference for measurements, a 2 s depolarizing step at +40 mV, followed by a 2 s step at −50 mV to elicit the peak hERG current by rapid recovery from inactivation, repeated sweeps at 10 s intervals, plus specific protocols to assess the voltage dependence of activation and inactivation, as described in Thomet et al., 2021 [11]. • - For hKv7.1 + minK, a general two-step activation protocol was used: holding at −110 mV, a 250 ms step at −80 mV with a brief (50 ms) step at −90 mV at the middle to monitor seal quality, a 3000 ms depolarizing step at +60 mV, followed by a 1000 ms step at −50 mV; repeated sweeps at 20 s intervals. • - For hCav1.2, a pharmacology protocol with holding at −80 mV, a first 100 ms step at −50 mV and a second 200 ms step at 0 mV, repeated sweeps at 20 s intervals with drug application after 5 sweeps if current levels were steady, plus an activation–inactivation protocol with holding at −80 mV, 1000 ms depolarizing steps from −80 to +50 mV in 10 mV increments, followed by 250 ms steps at +10 mV and a return to −80 mV; 14 sweeps at 20 s intervals. • - For hNav1.5, multiple voltage protocols were used, including the following: • - A standard pharmacology protocol with holding at −90 mV, a 20 ms step at −110 mV for seal monitoring, a 40 ms activation step at −10 mV, and repeated sweeps at 1 s intervals.
To estimate state-specific blocking and unblocking kinetics, we applied, initially and during exposure to cenobamate, a special voltage protocol devised for use-dependent block, with repeated brief depolarizing pulses at −10 mV separated by variable intervals at a hyperpolarized potential (−120 mV), with durations between 5 and 50 ms, as described in Section 2. Recordings using this protocol in initial conditions and with cenobamate application are illustrated in Figure S3 of the Supplementary Materials. By noting with td = 10 ms and tr = 5–50 ms the times spent at a depolarized potential and at a resting hyperpolarized potential during each pulse, with on the fraction of available (non-inactivated or blocked) channels that produce the peak Na^+ current during each depolarizing pulse of the sequence, and with τi and τr, the apparent macroscopic time constants of inactivation and recovery from inactivation in control conditions (in the absence of a blocker), we obtained using several approximations a general recurrence formula that allows computation for each experiment of the recovery time constant, knowing the inactivation time constant (obtained by the monoexponential fit of the inactivation part of the recording during the depolarization pulse) and the decay in peak INa amplitude during pulse n relative to the peak amplitude during the preceding pulse (1 − on)/on−1 (detailed explanations in Section S1 of the Supplementary Materials): τr=tr/ln1−e^−td/τi−ln1−on/on−1

[1] = mouse; ref [5] p.10; cited from earlier work

T1 sequence (Q14524 whole entry): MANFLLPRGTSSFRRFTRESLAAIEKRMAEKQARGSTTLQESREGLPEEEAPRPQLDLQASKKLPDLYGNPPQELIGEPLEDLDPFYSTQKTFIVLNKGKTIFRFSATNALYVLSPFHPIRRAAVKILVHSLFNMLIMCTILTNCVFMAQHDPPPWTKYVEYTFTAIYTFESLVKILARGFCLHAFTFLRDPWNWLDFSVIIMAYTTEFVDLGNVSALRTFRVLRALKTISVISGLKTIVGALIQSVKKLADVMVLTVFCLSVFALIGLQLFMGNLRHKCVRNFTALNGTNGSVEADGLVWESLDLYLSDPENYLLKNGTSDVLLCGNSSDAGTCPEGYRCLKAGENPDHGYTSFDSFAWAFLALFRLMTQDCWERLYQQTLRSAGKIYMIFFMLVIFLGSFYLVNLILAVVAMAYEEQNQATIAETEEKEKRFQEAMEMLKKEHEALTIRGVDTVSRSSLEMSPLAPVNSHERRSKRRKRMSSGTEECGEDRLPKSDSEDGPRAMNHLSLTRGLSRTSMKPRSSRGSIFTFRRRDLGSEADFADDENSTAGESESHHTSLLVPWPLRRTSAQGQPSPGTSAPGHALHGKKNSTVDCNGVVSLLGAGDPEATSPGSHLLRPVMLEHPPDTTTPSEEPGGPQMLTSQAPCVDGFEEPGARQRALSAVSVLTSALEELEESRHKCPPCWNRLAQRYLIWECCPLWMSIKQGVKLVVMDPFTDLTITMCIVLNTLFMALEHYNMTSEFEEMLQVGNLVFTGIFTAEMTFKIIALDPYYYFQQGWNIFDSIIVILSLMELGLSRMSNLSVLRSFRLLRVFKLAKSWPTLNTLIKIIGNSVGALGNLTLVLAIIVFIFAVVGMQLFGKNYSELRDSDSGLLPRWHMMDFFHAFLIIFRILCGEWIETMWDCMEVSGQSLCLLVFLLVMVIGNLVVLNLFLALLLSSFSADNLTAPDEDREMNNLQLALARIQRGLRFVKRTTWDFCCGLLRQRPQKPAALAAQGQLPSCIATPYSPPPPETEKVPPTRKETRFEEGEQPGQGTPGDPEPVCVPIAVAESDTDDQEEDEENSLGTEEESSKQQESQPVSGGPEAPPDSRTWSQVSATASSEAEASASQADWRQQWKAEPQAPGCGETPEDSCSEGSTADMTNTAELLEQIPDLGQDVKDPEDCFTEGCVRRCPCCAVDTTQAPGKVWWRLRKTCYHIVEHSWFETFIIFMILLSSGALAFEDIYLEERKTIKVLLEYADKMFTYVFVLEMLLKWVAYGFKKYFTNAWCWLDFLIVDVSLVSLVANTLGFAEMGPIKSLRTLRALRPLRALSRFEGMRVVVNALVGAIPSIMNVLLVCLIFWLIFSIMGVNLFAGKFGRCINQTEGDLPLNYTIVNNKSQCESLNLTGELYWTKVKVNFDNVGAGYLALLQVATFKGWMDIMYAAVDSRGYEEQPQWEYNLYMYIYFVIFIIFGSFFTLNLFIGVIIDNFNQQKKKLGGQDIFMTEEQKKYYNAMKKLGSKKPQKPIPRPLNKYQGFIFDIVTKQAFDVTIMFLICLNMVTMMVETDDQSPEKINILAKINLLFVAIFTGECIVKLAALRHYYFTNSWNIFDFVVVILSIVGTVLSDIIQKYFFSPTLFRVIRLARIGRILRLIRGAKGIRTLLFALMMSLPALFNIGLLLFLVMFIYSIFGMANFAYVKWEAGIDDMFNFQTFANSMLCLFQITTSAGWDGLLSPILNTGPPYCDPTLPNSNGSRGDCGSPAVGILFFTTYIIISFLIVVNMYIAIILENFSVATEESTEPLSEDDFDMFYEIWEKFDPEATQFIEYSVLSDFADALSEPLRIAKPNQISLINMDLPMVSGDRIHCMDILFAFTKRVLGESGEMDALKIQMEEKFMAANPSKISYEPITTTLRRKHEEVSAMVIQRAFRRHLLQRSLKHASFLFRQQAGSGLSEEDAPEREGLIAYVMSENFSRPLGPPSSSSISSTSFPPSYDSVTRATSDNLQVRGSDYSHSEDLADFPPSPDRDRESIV

NC(=O)O[C@@H](Cn1ncnn1)c1ccccc1Cl [cenobamate]
kib (blocking rate, inactivated conformation) (hNav1.5): 669800 M⁻¹ s⁻¹
kib (model script) (hNav1.5): 669800 M⁻¹ s⁻¹
kib^−1 (unblocking rate, inactivated conformation) (hNav1.5): 0.1825 ms^−1
kob (blocking rate, open conformation) (hNav1.5): 2.15e+06 M⁻¹ s⁻¹
kob (model script) (hNav1.5): 2.15e+06 M⁻¹ s⁻¹
kob^−1 (unblocking rate, open conformation) (hNav1.5): 0.189 ms^−1
Kd (hNav1.5; Kd (I)): 273 µM
Kd (hNav1.5; Kd (O), open conformation, assumed equivalent to IC50 on peak INa): 87.8 µM
1/τib (kib × [D] + kib^−1) (hNav1.5; [D] 98.44 µM): 0.2484 ms^−1
est. τib (hNav1.5; blocking/unblocking time constant of inactivated conformation, cenobamate estimated 98.44 µM, per experiment and mean ± SD): 4.08 ms and 3.83 ms and 4.94 ms and 3.25 ms
Rate (1/τ) with cenobamate (hNav1.5; cenobamate 200 µM, initial 0.94): 1.56 ms^−1
τi+ob (hNav1.5; use-dependent block protocol during cenobamate (estimated 98.44 µM), per experiment and mean ± SD): 2.23 ms and 3.04 ms and 2.94 ms and 1.73 ms
protein binding [1]: 43.2%
